Data on 33 compounds can be found in patent US5840677A, “Boronic acid or borinic acid derivatives as enzyme stabilizers” (Novo Nordisk A/S, priority 1993, dated 1998).

Test [1] deals with T1, Alcalase (Bacillus licheniformis, UniProt P00780).
T1 construct: purchased Novo Nordisk A/S
T1 sequence (P00780 106-379): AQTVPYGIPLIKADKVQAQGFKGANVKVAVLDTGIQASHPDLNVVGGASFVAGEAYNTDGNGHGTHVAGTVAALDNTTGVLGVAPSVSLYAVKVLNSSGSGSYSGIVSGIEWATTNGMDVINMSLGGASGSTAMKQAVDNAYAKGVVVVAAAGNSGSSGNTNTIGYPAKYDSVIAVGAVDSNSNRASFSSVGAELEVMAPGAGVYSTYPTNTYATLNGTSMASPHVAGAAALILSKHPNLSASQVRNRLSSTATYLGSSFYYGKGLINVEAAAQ
In words: biochemical. The conditions noted are these: substrate SAAPFpNA; 0.1 M Tris-HCl pH 8.6; 25° C.; Alcalase 1×10^-10 -3×10^-10 M. The source says: (§1) c) Determination of Ki : The inhibition constant Ki may be determined by using standard methods, for reference see Keller et al, Biochem. Biophys. Res. Com. 176, 1991, pp.401-405; J. Bieth in Bayer-Symposium "Proteinase Inhibitors", pp. 463-469, Springer-Verlag, 1974 and Lone Kierstein Hansen in "Determination of Specific Activities of Selected Detergent Proteases using Protease Activity, Molecular Weights, Kinetic Parameters and Inhibition Kinetics", PhD-report, Novo Nordisk A/S and University of Copenhagen, 1991.
(§2) The inhibition constants Ki, for the inhibition of Alcalase and Savinase respectively, were determined using standard methods under the following conditions:
(§3) Substrate: Succinyl-Alanine-Alanine-Proline-Phenylalanine-para-nitro-anilide=SAAPFpNA(Sigma S-7388).
(§4) Buffer: 0.1 M Tris-HCl pH 8.6; 25° C.
(§5) Enzyme concentration in assay
(§6) The initial rate of substrate hydrolysis was determined at nine substrate concenterations in the range of 0.01 to 2 mM using a Cobas Fara automated spectrophotometer. The kinetic parameters Vmax and Km were determined using ENZFITTER (a non-linear regression data analysis program). kcat was calculated from the equation Vmax =kcat X[Eo ]. The concentration of active enzyme [Eo ] was determined by active site titration using tight-binding protein proteinase inhibitors. The inhibition constant Ki was calculated from plots of Km /kcat as a function of the concentration of inhibitor. The inhibitors were assumed to be 100% pure and the molar concentrations were determined using weighing numbers and molecular weights.

The target of test [2] is T2, Savinase (Lederbergia lenta, UniProt P29600).
T2 construct: purchased Novo Nordisk A/S
T2 sequence (P29600 1-269): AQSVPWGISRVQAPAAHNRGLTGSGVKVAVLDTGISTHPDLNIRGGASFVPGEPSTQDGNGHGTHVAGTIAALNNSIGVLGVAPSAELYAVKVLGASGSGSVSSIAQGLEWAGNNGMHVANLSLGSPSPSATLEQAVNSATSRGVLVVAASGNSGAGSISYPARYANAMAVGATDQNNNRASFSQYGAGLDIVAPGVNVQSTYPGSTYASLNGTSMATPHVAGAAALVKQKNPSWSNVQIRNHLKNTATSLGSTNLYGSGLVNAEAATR
Briefly: biochemical. Further details: species or system Bacillus. The following applies: substrate SAAPFpNA; 0.1 M Tris-HCl pH 8.6; 25° C.; Savinase 1-10^-10 -3×10^-10 M.
Excerpt: as §1, §2, §3, §4, §5, §6

Test [3] deals with T2, Savinase. Briefly: Storage Stability Test in Liquid Detergent (improvement factor IFI, inhibition of protease). The conditions noted are these: US-type liquid detergent, 1% w/w Savinase + 1% w/w Lipolase, 0, 3, 7 and 14 days at 30° C. The format is biochemical, Bacillus. How it is done: a) Storage Stability Test in Licuid Deterrent: Enzyme(s) and stabilizer are added to a liquid detergent formulation and stored at well defined conditions. The enzyme activity of each enzyme is determined as a function of time, e.g. after 0, 3, 7 and 14 days.
To calculate the inhibition efficiency from the storage stability date a reaction mechanism is proposed.
From these reactions three coupled differential equations are derived describing the deactivation of P, L and PI. The reaction rate constants are derived from storage stability data by the use of a parameter estimation method (Gauss-Newton with the Levenberg modification). The storage stability data give the concentration of (P+PI) and L as a function of time.
Reaction IV is excluded from the system to reduce the number of parameters thereby describing the stability of the inhibited enzyme by only one reaction rate constant (from equation V).
In all experiments there is a large surplus of inhibitor molecules compared to protease molecules, i.e. a constant concentration of inhibitor (corresponding to the added amount of inhibitor) is a reasonable assumption.
An improvement factor is thus derived: [formula] IFI measures the inhibition efficiency given by the inhibition constants KI from reaction III.
Different boronic and borinic acid derivative enzyme stabilizers were also tested in storage stability tests in liquid detergents using the method described previously under the following conditions: […]

Test [4] deals with subtilisin. The conditions noted are these: Keller et al, Biochem. Biophys. Res. Com. 176, 1991; cited from earlier work.
For test [5], the system named is proteolytic enzymes. The following applies: prior art; cited from earlier work.
Setting [6] is: stabilizer 5 mmole/kg, relative to boric acid.

For `OB(O)c1cc2ccccc2o1`, the Ki in test [1] was found to be 1000 µM; in test [2] it was 800 µM.
As to `Cc1cc(B(O)O)c(C)s1` [2,5-dimethylthiophene-3-boronic acid], the Ki in test [1] amounted to 3000 µM; in test [2], 6000 µM. For the same compound, in test [3] (setting [6]), the “Improvement factor IFI” value was determined as 7.
For the compound `OB(O)CCC1CCCCC1` [2-cyclohexylethyl], in test [4], the “capacity as subtilisin inhibitor” value was “poor inhibitors”.
Consider `OB(O)c1cc(Cl)cc(Cl)c1` [3,5-dichlorophenylboronic acid], for which, in test [4], the “capacity as subtilisin inhibitor” value is given as “particularly effective”.
For the compound `OB(O)c1sccc1Br` [3-Bromothiophene-2-boronic acid], the inhibition constant (Ki) in test [1] and in test [2] was 2000 µM throughout.
As for `COc1ccsc1B(O)O` [3-Methoxythiophene-2-boronic acid], the Ki in test [1] was 3000 µM; in test [2] it was 1200 µM. For the same compound, the “Improvement factor IFI” value in test [3] (setting [6]) was found to be 8.
As for `OB(O)CCc1cccc2[nH]c3ccccc3c12` [4-Carbazole ethyl boronic acid], the values for the Ki in test [1] and in test [2] were 1000 µM and 2000 µM, respectively.
As to `Cc1csc(B(O)O)c1` [4-Methylthiophene-2-boronic acid], the inhibition constant (Ki) in test [1] was found to be 1800 µM; in test [2], 3000 µM. The “Improvement factor IFI” value in test [3] (setting [6]) was 4.
With `COc1ccc(B(O)O)cc1` [4-methoxyphenyl], in test [4], the “capacity as subtilisin inhibitor” value is on record as “very good inhibitors”.
On to `OB(O)c1ccc(Br)s1` [5-Bromothiophene-2-boronic acid], for which the results for the inhibition constant Ki in test [1] and in test [2] were 400 µM and 200 µM, respectively. The “Improvement factor IFI” value in test [3] (setting [6]) is 124.
The like results for `OB(O)c1ccc(Cl)s1` [5-Chlorothiophene-2-boronic acid] were, in that order, 300 µM, 200 µM and 123.
For the compound `CCc1ccc(B(O)O)o1` [5-Ethylfuran-2-boronic acid], the Ki in test [1] was found to be 2000 µM; in test [2], 3000 µM.
With `CCc1ccc(B(O)O)s1` [5-Ethylthiophene-2-boronic acid], the inhibition constant (Ki) in test [1] worked out at 700 µM; in test [2] it was 900 µM. Also, the “Improvement factor IFI” value in test [3] (setting [6]) is given as 66.
For `COc1ccc(B(O)O)o1` [5-Methoxyfuran-2-boronic acid], the values for the inhibitory constant (Ki) in test [1] and in test [2] were 2000 µM and 3000 µM, respectively.
Consider `COc1ccc(B(O)O)s1` [5-Methoxythiophene-2-boronic acid], for which the Ki in test [1] came out at 2000 µM; in test [2], 1000 µM. For the same compound, in test [3] (setting [6]), the “Improvement factor IFI” value was determined as 14.
For `Cc1ccc(B(O)O)s1` [5-Methylthiophene-2-boronic acid] the same measures were 2000 µM, 3000 µM and 12.
With `CCCc1ccc(B(O)O)s1` [5-n-Propylthiophene-2-boronic acid], the inhibitory constant (Ki) in test [1] came to 1500 µM; in test [2] it was 3000 µM.
`OB(O)c1cc2ccccc2o1` [Benzofuran-2-boronic acid]: the “Improvement factor IFI” value in test [3] (setting [6]) was 190.
Turning to `OB(O)O` [Boric acid, reference compound], the “inhibition of proteolytic enzymes” value in test [5] is “reversibly inhibit proteolytic enzymes”. The “Improvement factor IFI” value in test [3] (reference, boric acid 160 mmole/kg) was found to be 1.
For the compound `OB(O)c1cccc2oc3ccccc3c12` [Dibenzofuran-1-boronic acid], the inhibition constant Ki in test [1] was 1100 µM; in test [2], 1500 µM. Further, the “Improvement factor IFI” value in test [3] (setting [6]) is reported as 9.
For `OB(O)c1cccc2c1oc1ccccc12` [Dibenzofuran-4-boronic acid] the same measures were 900 µM, 1100 µM and 19.
For `OB(O)c1cccc2sc3ccccc3c12` [Dibenzothiophene-1-boronic acid] the same measures were 900 µM, 1500 µM and 12.
In the case of `OB(c1ccccc1)c1ccccc1` [Diphenylborinic acid (ethanolamine complex)], the inhibition constant (Ki) in test [1] came to 2000 µM; in test [2], 4000 µM.
Turning to `OB(O)c1ccco1` [Furan-2-boronic acid], the inhibition constant (Ki) in test [1] turned out to be 3000 µM; in test [2], 4000 µM. In test [3] (setting [6]), the “Improvement factor IFI” value is listed as 13.
On to `OB(O)c1ccoc1` [Furan-3-boronic acid], for which the Ki in test [1] stood at 10000 µM; in test [2], 7000 µM. The “Improvement factor IFI” value in test [3] (setting [6]) came to 32.
As for `OB(O)c1cc2ccccc2s1` [Thionaphthrene-1-boronic acid], the Ki in test [1] was 2000 µM; in test [2], 3000 µM. Besides, in test [3] (setting [6]), the “Improvement factor IFI” value turned out to be 20.
The like results for `OB(O)c1cccs1` [Thiophene-2-boronic acid] were, in that order, 2000 µM, 2000 µM and 72.
The like results for `OB(O)c1ccsc1` [Thiophene-3-boronic acid] were, in that order, 2000 µM, 2000 µM and 63.
Turning to `CCCCB(O)O` [butyl], the “capacity as subtilisin inhibitor” value in test [4] was “poor inhibitors”.
As for `CB(O)O` [methylboronic acid], the “capacity as subtilisin inhibitor” value in test [4] is “poorest inhibitor”.
In the case of `OB(O)c1ccccc1` [phenyl], in test [4], the “capacity as subtilisin inhibitor” value is on record as “very good inhibitors”.
Take Picoline-2-boronic acid: the Ki in test [1] is 3000 µM; in test [2], 4000 µM.
In the case of acetamidobenzene boronic acid, in test [5], the “inhibition of proteolytic enzymes” value is given as “superior inhibitor of proteolytic enzymes”.
